# Test results: patent US20220194935A1, “PHENETHYL SUBSTITUTED IMIDAZO[4,5-C]QUINOLINE COMPOUNDS WITH AN N-1 BRANCHED GROUP” (3M INNOVATIVE PROPERTIES COMPANY, priority 2019, published 2022)
# Biological target: T1, human TLR8 (Homo sapiens, UniProt Q9NR97)
# T1 construct: host or cells: HEK293 (HEK-BLUE-hTLR8)
# T1 sequence (Q9NR97 27-1041): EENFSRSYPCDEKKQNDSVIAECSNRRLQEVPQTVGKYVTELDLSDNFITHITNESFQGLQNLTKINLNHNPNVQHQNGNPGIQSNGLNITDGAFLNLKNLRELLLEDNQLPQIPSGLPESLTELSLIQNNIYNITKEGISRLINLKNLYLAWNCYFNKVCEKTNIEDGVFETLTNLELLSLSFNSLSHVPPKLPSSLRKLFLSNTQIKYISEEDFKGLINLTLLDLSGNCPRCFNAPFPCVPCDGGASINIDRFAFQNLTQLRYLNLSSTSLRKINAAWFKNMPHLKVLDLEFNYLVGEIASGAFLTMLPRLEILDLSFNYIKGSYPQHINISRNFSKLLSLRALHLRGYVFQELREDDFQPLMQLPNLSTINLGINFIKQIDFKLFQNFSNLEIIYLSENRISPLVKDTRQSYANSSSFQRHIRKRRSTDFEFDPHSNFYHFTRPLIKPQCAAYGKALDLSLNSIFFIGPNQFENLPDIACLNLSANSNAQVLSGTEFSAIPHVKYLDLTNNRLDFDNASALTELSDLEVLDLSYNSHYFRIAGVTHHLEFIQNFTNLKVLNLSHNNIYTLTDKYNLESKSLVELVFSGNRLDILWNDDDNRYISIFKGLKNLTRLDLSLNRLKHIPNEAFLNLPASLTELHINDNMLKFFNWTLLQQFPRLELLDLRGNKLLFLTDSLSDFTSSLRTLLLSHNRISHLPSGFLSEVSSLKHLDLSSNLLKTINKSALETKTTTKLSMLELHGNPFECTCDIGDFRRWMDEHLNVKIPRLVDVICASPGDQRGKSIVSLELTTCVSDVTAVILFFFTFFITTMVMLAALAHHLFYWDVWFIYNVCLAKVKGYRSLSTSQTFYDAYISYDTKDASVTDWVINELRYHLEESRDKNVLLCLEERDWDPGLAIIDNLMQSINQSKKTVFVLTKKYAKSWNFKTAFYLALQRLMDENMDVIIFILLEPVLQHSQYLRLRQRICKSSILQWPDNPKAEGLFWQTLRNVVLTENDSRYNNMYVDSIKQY
# Experiment: TLR Activation and Specificity, HEK-BLUE-hTLR8 SEAP reporter cells
# Format: cell-based
# Conditions: 16-20 hours, at least 2× vehicle control, tested 0.01-30 micromolar
# Protocol: HEK-BLUE-hTLR7 or hTLR8 reporter cells were obtained from InvivoGen, San Diego, Calif. According to the manufacturer's description, these reporter cells were prepared by co-transfection of HEK293 cells with an inducible secreted embryonic alkaline phosphatase (SEAP) reporter gene and either the human TLR7 or TLR8 gene. The SEAP reporter gene was placed under the control of an IFN-β minimal promoter fused to five NF-κB and AP-1-binding sites. In the presence of a TLR ligand, activation of NF-κB and AP-1 occurs, resulting in a corresponding increase in SEAP levels.
# In the assay, the HEK cells were grown and maintained using standard cell culture techniques in a growth medium that contained Dulbecco's Modified Eagle Medium (ThermoFisher Scientific Incorporated, Waltham, Mass.) supplemented with 1% penicillin/streptomycin and 10% heat-inactivated Gibco fetal bovine serum (ThermoFisher Scientific). Each compound was solubilized in DMSO to create a 3 millimole (mM) stock solution. The stock solution was then further diluted with the growth medium to prepare serial dilutions. Each test compound was tested at a concentration of 30, 10, 3.3, 1.1, 0.37, 0.12, 0.04, and 0.01 micromolar using a 96-well format with 5×10^4 cells and 200 microliters of growth medium per well.
# For each compound, hTLR7, hTLR8, and their respective null control HEK cells were screened. DMSO serially diluted into the growth medium served as the vehicle control. Cell culture supernatants containing the SEAP reporter were collected after an incubation period of 16-20 hours in a cell culture incubator (37° C. and 5% CO2), and either analyzed immediately or stored at −80° C. SEAP levels were measured using the colorimetric enzyme assay (QUANTI-BLUE (InvivoGen) according to manufacturer's instructions.
# Specifically, the minimum effective concentration of each compound (micromolar) was determined as the lowest concentration of the compound that produced a SEAP expression response at least 2× greater than that observed with the vehicle control wells.
row,Compound,"MEC to Produce TLR Activation, TLR 8 [µM]"
1,"CCCC[C@H](Cc1ccccc1)n1cnc2c(N)nc3ccccc3c21 [Example 2, 1-[(1R)-1-benzylpentyl]imidazo[4,5-c]quinolin-4-amine]",10
2,"CCCCOc1ccc(C[C@@H](CCCC)n2cnc3c(N)nc4ccccc4c32)cc1 [Example 7, 1-[(1R)-1-[(4-butoxyphenyl)methyl]pentyl]imidazo[4,5-c]quinolin-4-amine]",10
3,"C[C@H](Cc1ccccc1)n1cnc2c(N)nc3ccccc3c21 [Example 1, 1-[(1R)-1-methyl-2-phenyl-ethyl]imidazo[4,5-c]quinolin-4-amine]",>30
4,"Nc1nc2ccccc2c2c1ncn2CCc1ccccc1 [Comparative Example 1, 1-phenethyl-1H-imidazo[4,5-c]quinolin-4-amine, reference compound]",>30

# The next lines start with the values.
row,"MEC to Produce TLR Activation, TLR 8 [µM]",Compound
1,>30,"COC[C@@H](Cc1ccccc1)n1cnc2c(N)nc3ccccc3c21 [Example 3, 1-[(1R)-1-benzyl-2-methoxy-ethyl]imidazo[4,5-c]quinolin-4-amine]"
2,3.3,"CCOC[C@H](Cc1ccccc1)n1cnc2c(N)nc3ccccc3c21 [Example 6, 1-[(1S)-1-benzyl-2-ethoxy-ethyl]imidazo[4,5-c]quinolin-4-amine]"
3,10,"COC[C@H](Cc1ccccc1)n1cnc2c(N)nc3ccccc3c21 [Example 5, 1-[(1S)-1-benzyl-2-methoxy-ethyl]imidazo[4,5-c]quinolin-4-amine]"
4,>30,"CCOC[C@@H](Cc1ccccc1)n1cnc2c(N)nc3ccccc3c21 [Example 4, 1-[(1R)-1-benzyl-2-ethoxy-ethyl]imidazo[4,5-c]quinolin-4-amine]"
